Data on six molecules can be found in patent US7741520B2, “Sulfonanilide analogs as selective aromatase modulators (SAMs)” (The Ohio State University Research Foundation, priority 2006, dated 2010).

One data set has as its system SK-BR-3 cells. Nature of the data set: Analysis of apoptosis (single-stranded DNA ELISA) in SK-BR-3 cells. It is filed as cell-based, human. The following applies: 5 μM, 24 hours (FIG. 16). The protocol: Analysis of apoptosis. Apoptosis was determined by selective denaturation of DNA in apoptotic cells by formamide and detection of denatured DNA with a monoclonal antibody to single-stranded DNA using an ELISA kit (CHEMICON, Temecula, Calif.). Cells were plated in a 96-well flat bottom plate from 0.5×10^4 to 1×10^4 cells/well in custom media. Cells were allowed to adhere to wells overnight. Following incubation, compounds were made up in define media and a 5 μM screen was performed in each cell line with respective compounds in triplicate for 24 hours. Following treatment, the plate was centrifuged at 200×g for 5 min, media was removed followed by the addition of 200 μl of fixative. The plate was incubated for 30 min at 37° C., at which point the fixative was removed and the plate dried for 1-2 hours at room temperature. Fifty microliters of formamide was added to each well following a brief incubation at room temperature for 10 min. The DNA in apoptotic cells was denatured by heating the plate for 10 min, then briefly cooling the plate for 5 min at 4° C. following removal of formamide. The plate was rinsed three times with 200 μl of PBS following one hour incubation at 37° C. with 200 μl of 3% blocking agent. After removal of the blocking agent, 100 μl of antibody mixture were added to each well for 30 min at room temperature. The plate was washed three times with 1× wash buffer using 250 μl of wash buffer/well followed by the addition of 200 μl of ABTS solution added to each well for a 15-60 minute incubation. The reaction was stopped by the addition of 100 μl of a stop solution added to each well and absorbance was measured at 405 nm on a SpectroMax 340 UV PlateReader.
For orientation: An ELISA detects its analyte on a solid surface through an enzyme-linked reagent.

The target of data set [1] is T1, aromatase activity in JAR choriocarcinoma placental cells (Homo sapiens, UniProt P11511).
T1 construct: JAR choriocarcinoma placental cells (which produce aromatase expression from promoter I.1 mediated by protein kinase C); host or cells: JAR
T1 sequence (P11511 1-503): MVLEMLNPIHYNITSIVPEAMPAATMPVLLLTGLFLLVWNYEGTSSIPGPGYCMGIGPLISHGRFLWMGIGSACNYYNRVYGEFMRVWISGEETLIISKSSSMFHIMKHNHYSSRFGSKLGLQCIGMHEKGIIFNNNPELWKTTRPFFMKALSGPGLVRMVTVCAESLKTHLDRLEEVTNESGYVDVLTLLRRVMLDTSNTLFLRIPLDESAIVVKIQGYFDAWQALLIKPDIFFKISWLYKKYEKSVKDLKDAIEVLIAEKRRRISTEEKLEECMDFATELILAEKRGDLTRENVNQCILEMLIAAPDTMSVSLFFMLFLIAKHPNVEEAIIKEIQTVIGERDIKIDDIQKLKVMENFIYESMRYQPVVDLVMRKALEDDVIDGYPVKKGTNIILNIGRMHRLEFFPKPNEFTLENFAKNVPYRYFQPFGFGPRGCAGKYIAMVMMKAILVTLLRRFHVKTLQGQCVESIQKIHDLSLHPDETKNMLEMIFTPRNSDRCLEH
As to the kind of experiment: Tritiated water-release assay in JAR cells. It is filed as cell-based. The following applies: 24 h, 15 μM (FIG. 11), read-out: decrease of aromatase activity in JAR cells. The procedure: Cell Culture. AR and SK-BR-3 cells were obtained from ATCC (Rockville, Md.). SK-BR-3 cells were maintained in phenol red-free custom media (MEM, Earle's salts, 1.5× amino acids, 2× non-essential amino acids, L-glutamine, 1.5× vitamins, Gibco BRL) supplemented with 10% fetal bovine serum (FBS), 2 mM L-glutamine and 20 mg/L gentamycin. JAR cells were maintained in RPMI 1640 medium with 2 mM L-glutamine adjusted to contain 1.5 g/L sodium bicarbonate, 4.5 g/L glucose, 10 mM HEPES, and 1.0 mM sodium pyruvate, 90%; FBS, 10%. Fetal bovine serum was heat inactivated for 30 min in a 56° C. water bath before use. Cell cultures were grown at 37° C., in a humidified atmosphere of 5% CO2 in a Hereaus CO2 incubator. For all experiments, cells were plated in 6 well plates and grown to subconfluency. Before treatment, the media was changed to a defined one containing DMEM/F12 media (Sigma) with 1.0 mg/mL human albumin (OSU Hospital Pharmacy), 5.0 mg/L human transferin and 5.0 mg/L bovine insulin.
Tritiated water-release assay in JAR and SK-BR-3 cell lines. Measurement of aromatase enzyme activity was based on the tritium water release assay. Cells in six well plates were treated with 0.1% DMSO (control), and inhibitors at the indicated concentrations. After 24 hours, the cells were incubated 3 hours (SK-BR-3 cells) or 1 hour (JAR cells) with fresh media along with 100 nM [1β-^3H]-androst-4-ene-3,17-dione (1 μCi). Subsequently, the reaction mixture was removed, and proteins were precipitated using 10% trichloroacetic acid at 42° C. for 20 min. After a brief centrifugation, the media was extracted three times with an equal amount of chloroform to remove remaining substrate and further treated with dextran-treated charcoal. After centrifugation, a 250-μl aliquot containing the product was counted in 5 ml of liquid scintillation mixture. Results were corrected for blanks and for the cell contents of culture flasks, and results were expressed as picomoles of ^3H2O formed per hour incubation time per million live cells (pmol/h/10^6 cells). To determine the amount of cells in each flask, the cells were lysed and analyzed using the diphenylamine DNA assay adapted to a 96-well plate. IC50 sigmoidal dose-response data were analyzed with Microsoft Excel and the Graphpad Prism (Version 3.0) program.
Diphenylamine DNA Assay To determine the amount of viable cells in each flask, the cells were lysed with 0.5N NaOH aqueous solution and analyzed using the diphenylamine DNA assay adapted to a 96-well plate. DNA standards (0-30 μg) were prepared using double-stranded DNA reconstituted in PBS and added in triplicates directly to the wells. A uniform cell suspension was prepared from the 6 well plate in 300 μl 0.5N NaOH aqueous solution, and 60 μl of the unknown samples were added in triplicates to separate wells. A solution of 0.16% acetaldehyde in water was prepared and mixed at a 1:5 ratio with perchloric acid (20% vol/vol). This solution (60 μl) was added to each well along with 100 μl of a 4% diphenylamine solution in glacial acetic acid. The plates were incubated at 37° C. for 24 hours. After centrifugation, 100 μl supernatant of each well was transferred to a new 96 well plate, and the OD595 was measured using a microplater reader. The DNA concentration was determined by extrapolation to the standard curve and the amount of cells/well was calculated using the equation: 1 cell≈7 pg DNA.

On to `CN(c1ccc([N+](=O)[O-])cc1OCc1ccccc1)S(C)(=O)=O` [Compound 26f, N-methyl-N-(2-benzyloxy-4-nitrophenyl) methanesulfonamide], for which the apoptotic effects entry in the data set on SK-BR-3 cells is reported as “do not produce apoptotic effects”. Moreover, in data set [1], the inhibition at 15 µM was < 50%.
The corresponding values for `CN(c1ccc([N+](=O)[O-])cc1OCc1ccccc1-c1ccccc1)S(C)(=O)=O` [Compound 29c, N-methyl-N-[2-(2′-phenylbenzyloxy)-4-nitrophenyl]methanesulfonamide] are “do not produce apoptotic effects” and < 50%.
In the same order, the values of `CN(c1ccc([N+](=O)[O-])cc1OCc1ccc([N+](=O)[O-])cc1)S(C)(=O)=O` [Compound 27c, N-methyl-N-[2-(4′-nitrobenzyloxy)-4-nitrophenyl]methanesulfonamide] are “do not produce apoptotic effects” and < 50%.
The corresponding values for `Cc1ccc(COc2cc([N+](=O)[O-])ccc2N(C)S(C)(=O)=O)cc1` [Compound 30c, N-methyl-N-[2-(4′-methylbenzyloxy)-4-nitrophenyl]methanesulfonamide] are “do not produce apoptotic effects” and < 50%.
On to `CN(c1ccc([N+](=O)[O-])cc1OCc1ccc(F)cc1)S(C)(=O)=O` [Compound 33c, N-methyl-N-[2-(4′-fluorobenzyloxy)-4-nitrophenyl]methanesulfonamide], for which, in the data set with SK-BR-3 cells, the apoptotic effects entry is reported as “do not produce apoptotic effects”. Moreover, the inhibition at 15 µM in data set [1] was < 50%.
Take `CN(c1ccc([N+](=O)[O-])cc1OCc1ccc2ccccc2c1)S(C)(=O)=O` [Compound 28c, N-methyl-N-[2-(β-naphthylmethoxy) 4-nitrophenyl]methanesulfonamide]: the apoptotic effects result with SK-BR-3 cells is recorded as “do not produce apoptotic effects”. The inhibition at 15 µM in data set [1] is < 50%.
